The conditions of data set [1]: cited from earlier work.
For data set [2] the following is noted: cited from earlier work. The source holds these as a separate data set.
Data set [3] is described as follows: membrane affinity as a measure of the lipophilicity (TRANSIL technology). Format: physicochemical.
The conditions of data set [4]: water solubility, from the literature; cited from earlier work.
Another data set has as its target human serum albumin (Homo sapiens, UniProt P02768). Description: binding constant to human serum albumin (TRANSIL technology). From the text:
The effective molecular weight (MW) is obtained simply from the respective empirical formula of the substance. The waters solubilities and the typical administered dosages of these commercially available products are furthermore known from the literature.
The ADME maps in FIGS. 5 to 10 show by way of example a selection of commercially available pharmaceutical substances. The substance names and the associated experimental measurement values for their physicochemical properties are summarised in Table 1.

For data set [5] the following is noted: in vivo; cited from earlier work.
Where [6] appears, read: log binding constant to human serum albumin, TRANSIL.

Values after ≈ are worked out from the molar mass of the structure shown.

Sequence of human serum albumin (P02768 25-609): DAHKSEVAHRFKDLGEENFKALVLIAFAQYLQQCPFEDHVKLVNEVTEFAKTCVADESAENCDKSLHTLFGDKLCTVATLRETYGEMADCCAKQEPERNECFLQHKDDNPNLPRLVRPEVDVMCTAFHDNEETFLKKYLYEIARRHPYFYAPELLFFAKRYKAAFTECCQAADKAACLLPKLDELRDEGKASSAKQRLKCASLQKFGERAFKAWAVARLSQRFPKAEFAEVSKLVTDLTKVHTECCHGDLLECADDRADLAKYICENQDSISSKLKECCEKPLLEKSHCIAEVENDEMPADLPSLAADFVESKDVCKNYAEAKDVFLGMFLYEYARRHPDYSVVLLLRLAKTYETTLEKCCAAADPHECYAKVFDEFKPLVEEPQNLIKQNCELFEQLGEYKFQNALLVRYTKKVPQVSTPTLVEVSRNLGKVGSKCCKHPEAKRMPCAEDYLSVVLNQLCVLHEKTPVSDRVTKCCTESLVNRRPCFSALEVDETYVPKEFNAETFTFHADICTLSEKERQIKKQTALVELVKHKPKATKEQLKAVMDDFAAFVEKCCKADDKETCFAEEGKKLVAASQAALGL

Broadly, the pKa is the negative logarithm of the acid dissociation constant. The logP is a log measure of how a compound divides between an organic and an aqueous phase. With `O=C(O)COc1ccc(Cl)cc1Cl` [2,4-D], the pKa in data set [1] is recorded as 2.73. For the same compound, the logP in data set [2] was 2.58.
For the compound `Cc1cc(Cl)ccc1OCC(=O)O` [MCPA], the pKa in data set [1] is 3.07. The logP in data set [2] is 2.75.
By Solubility is commonly meant the dissolved amount per volume that the medium holds. Regarding `CC(C)NCC(O)COc1cccc2ccccc12` (stereo not shown) [Propranolol], the LogMA in data set [3] turned out to be 3.146. Further, in data set [4], the Solubility was 609 µg/mL (≈ 2.35 mM). Further, the LogHSA on human serum albumin (human) is listed as −4.028.
As for `CC(C)(C)NCC(O)c1cc(O)cc(O)c1` (stereo not shown) [Terbutaline], the LogMA in data set [3] is recorded as 0.845. Also, the Solubility in data set [4] is 212800 µg/mL (≈ 945 mM). The same compound yielded a LogHSA on human serum albumin (human) of −2.398.
For `C[C@]12CC[C@H]3[C@@H](CCC4=CC(=O)CC[C@@]43C)[C@@H]1CC[C@@H]2O` [Testosteron], the LogMA in data set [3] is 2.826. For the same compound, in data set [4], the Solubility is 68 µg/mL (≈ 0.236 mM). On human serum albumin (setting [6]), the LogHSA is −4.912.
With `CC(C)(C)NC[C@H](O)COc1nsnc1N1CCOCC1` [Timolol], the LogMA in data set [3] stood at 1.477. Also, in data set [4], the Solubility was 2741 µg/mL (≈ 8.66 mM). For the same compound, the LogHSA on human serum albumin (human) is reported as −2.000.
The compound `CCCC(CCC)C(=O)O` [Valproic acid] came in with a LogMA in data set [3] of 1.041. Moreover, in data set [4], the Solubility was 895 µg/mL (≈ 6.21 mM). For the same compound, on human serum albumin (human), the LogHSA is recorded as −3.921.
Regarding `COc1cc(OC)nc(NC(=O)NS(=O)(=O)N(C)S(C)(=O)=O)n1` [amidosulfuron], the pKa in data set [1] is 3.58. Moreover, in data set [2], the logP is listed as 1.63.
Regarding `COc1cc(OC)nc(NC(=O)NS(=O)(=O)Cc2ccccc2C(=O)O)n1` [bensulfuron], the pKa in data set [1] is given as 5.2. Also, the logP in data set [2] is 0.62.
On to `COC(=O)c1cc(Oc2ccc(Cl)cc2Cl)ccc1[N+](=O)[O-]` [bifenox], for which the pKa in data set [1] is 13.8. Moreover, the logP in data set [2] is 4.5.
For the compound `CCC(C)n1c(=O)[nH]c(C)c(Br)c1=O` (stereo not shown) [bromacil], in data set [1], the pKa was 9.27. Also, the logP in data set [2] is 1.88.
Take `CCOC(=O)c1ccccc1S(=O)(=O)NC(=O)Nc1nc(Cl)cc(OC)n1` [chlorimuron-ethyl]: the pKa in data set [1] is recorded as 4.2. The lipophilicity (logP) in data set [2] is given as 2.7.
With `COc1cc(Cl)nc(NC(=O)NS(=O)(=O)c2ccccc2C(=O)O)n1` [chlorimuron], the pKa in data set [1] was 4.2. In addition, the logP in data set [2] is 0.11.
As for `C[C@@H](Oc1ccc(Cl)cc1Cl)C(=O)O` [dichlorprop-P], the pKa in data set [1] is listed as 3.67.
In the case of `CC(Oc1ccc(Oc2ccc(Cl)cc2Cl)cc1)C(=O)O` (stereo not shown) [diclofop], the pKa in data set [1] is listed as 3.43. Further, the logP in data set [2] is listed as 4.5.
As for `CN(C)C(=O)Nc1ccc(Cl)c(Cl)c1` [diuron], in data set [1], the pKa was 13.8. Besides, the logP in data set [2] is given as 2.85.
With `COC(=O)c1ccc(C(F)(F)F)nc1S(=O)(=O)NC(=O)Nc1nc(OC)cc(OC)n1` [flupyrsulfuron-methyl-sodium], the pKa in data set [1] was 4.9. The logP in data set [2] is 1.3.
For the compound `COC(=O)c1c(Cl)nn(C)c1S(=O)(=O)NC(=O)Nc1nc(OC)cc(OC)n1` [halosulfuron-methyl], the pKa in data set [1] was 3.44. In addition, the logP in data set [2] is reported as 2.9.
As for `COc1nc(C)nc(=NC(=O)NS(=O)(=O)c2ccccc2C(=O)O)[nH]1` [metsulfuron], in data set [1], the pKa is reported as 3.3. Besides, the logP in data set [2] was 2.
On to `CON(C)C(=O)Nc1ccc(Cl)cc1` [monolinuron], for which the pKa in data set [1] is given as 13.8. For the same compound, in data set [2], the logP is listed as 2.2.
With `COc1cc(OC)nc(NC(=O)NS(=O)(=O)c2ncccc2C(=O)N(C)C)n1` [nicosulfuron], the pKa in data set [1] is recorded as 4.6. The lipophilicity (logP) in data set [2] was 0.5.
As for `O=C(Nc1nc(OC(F)F)cc(OC(F)F)n1)NS(=O)(=O)c1ccccc1C(=O)O` [primisulfuron], in data set [1], the pKa is recorded as 3.47. In addition, in data set [2], the logP was 0.06.
In the case of `O=C(O)c1c(Cl)ccc2cc(Cl)cnc12` [quinclorac], the pKa in data set [1] is 4.34. For the same compound, in data set [2], the logP is on record as 3.6.
For the compound `COC(=O)c1ccccc1S(=O)(=O)NC(=O)Nc1nc(C)cc(C)n1` [sulfometuron-methyl], the pKa in data set [1] is recorded as 5.2. For the same compound, in data set [2], the lipophilicity (logP) is reported as 1.4.
For the compound `Cc1cc(C)nc(NC(=O)NS(=O)(=O)c2ccccc2C(=O)O)n1` [sulfometuron], the pKa in data set [1] is reported as 5.2. Further, in data set [2], the logP is given as −0.51.
For `COc1nc(C)nc(NC(=O)NS(=O)(=O)c2ccsc2C(=O)O)n1` [thifensulfuron], in data set [1], the pKa is on record as 4. The log partition coefficient (logP) in data set [2] is given as 0.02.
`COc1nc(C)nc(NC(=O)NS(=O)(=O)c2ccccc2OCCCl)n1` [triasulfuron]: the pKa in data set [1] was 4.64. In addition, the lipophilicity (logP) in data set [2] is listed as 1.6.
Regarding `COc1nc(C)nc(N(C)C(=O)NS(=O)(=O)c2ccccc2C(=O)O)n1` [tribenuron], the pKa in data set [1] was 5. Moreover, in data set [2], the logP was −0.44.
In the case of Clomipramin, the LogMA in data set [3] was found to be 4.104. The Solubility in data set [4] was 0.294 µg/mL. Moreover, on human serum albumin (setting [6]), the LogHSA is recorded as −2.796.
In data set [3], Oxacepam showed a LogMA of 2.342. The Solubility in data set [4] was 179 µg/mL. This compound also showed a LogHSA at human serum albumin (setting [6]) of −4.000.
With itraconazoles, the passive oral absorption entry in data set [5] is reported as “can be passively absorbed well”.

Values taken from patent US20050137807A1, “Method of visualization of the ADME properties of chemical substances” (priority 2003, published 2005).
